Test system: 966289-007-R4-J1-PDC complex spheroid viability
Assay: Anticancer human tumor 966289-007-R4-J1-PDC patient-derived pancreatic adenocarcinoma cell line growth inhibition [GQUAD]
Conditions: for IC50: curve of first compound; for viability, T/C: stronger effect = lower value
Procedure, shortened: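 Tumor cells were grown as complex spheroids with HUVEC endothelial cells and mesenchymal stem cells as stroma. G-quadruplex stabilizers were combined with targeted agents over half-log dilutions from near the clinical Cmax, or from 10 microM.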

[1] = second compound 0.0316 µM, first compound 0.0316 µM
[2] = second compound 0.0316 µM, first compound 0.1 µM
[3] = second compound 0.0316 µM, first compound 0.316 µM
[4] = second compound 0.0316 µM, first compound 1 µM
[5] = second compound 0.0316 µM, first compound 3.16 µM
[6] = second compound 0.0316 µM, first compound 10 µM
[7] = second compound 0.1 µM, first compound 0.0316 µM
[8] = second compound 0.1 µM, first compound 0.1 µM
[9] = second compound 0.1 µM, first compound 0.316 µM
[10] = second compound 0.1 µM, first compound 1 µM
[11] = second compound 0.1 µM, first compound 3.16 µM
[12] = second compound 0.1 µM, first compound 10 µM
[13] = second compound 0.316 µM, first compound 0.0316 µM
[14] = second compound 0.316 µM, first compound 0.1 µM
[15] = second compound 0.316 µM, first compound 0.316 µM
[16] = second compound 0.316 µM, first compound 1 µM
[17] = second compound 0.316 µM, first compound 3.16 µM
[18] = second compound 0.316 µM, first compound 10 µM
[19] = second compound 1 µM, first compound 0.0316 µM
[20] = second compound 1 µM, first compound 0.1 µM
[21] = second compound 1 µM, first compound 0.316 µM
[22] = second compound 1 µM, first compound 1 µM
[23] = second compound 1 µM, first compound 3.16 µM
[24] = second compound 1 µM, first compound 10 µM
[25] = second compound 3.16 µM, first compound 0.0316 µM
[26] = second compound 3.16 µM, first compound 0.1 µM
[27] = second compound 3.16 µM, first compound 0.316 µM
[28] = second compound 3.16 µM, first compound 1 µM
[29] = second compound 3.16 µM, first compound 3.16 µM
[30] = second compound 3.16 µM, first compound 10 µM
[31] = second compound 10 µM, first compound 0.0316 µM
[32] = second compound 10 µM, first compound 0.1 µM
[33] = second compound 10 µM, first compound 0.316 µM
[34] = second compound 10 µM, first compound 1 µM
[35] = second compound 10 µM, first compound 3.16 µM
[36] = second compound 10 µM, first compound 10 µM
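Also: spheroids exposed to the agents for seven days before readout.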
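For viability, T/C in this document: percent viability relative to DMSO vehicle control wells taken as 100%.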

`CC1COCCN1c1cc(C2(S(C)(=N)=O)CC2)nc(-c2ccnc3[nH]ccc23)n1` (stereo unspecified) + Cc1cnc(CNC(=O)c2c(=O)c3ccc(N4CCCN(C)CC4)nc3n3c2sc2ccccc23)cn1 showed an IC50 (second compound 0.0316 µM) of 2700 nM, an IC50 (second compound 0.1 µM) of under 31.6 nM and an IC50 (second compound 0.316 µM) of under 31.6 nM. The IC50 (second compound 1 µM) was under 31.6 nM, the IC50 (second compound 3.16 µM) was under 31.6 nM and the IC50 (second compound 10 µM) was under 31.6 nM. The viability, T/C [1] was 119%, the viability, T/C [2] was 108% and the viability, T/C [3] was 107%. The viability, T/C [4] was 44.5%, the viability, T/C [5] was 68.7% and the viability, T/C [6] was 3.76%. It also gave a viability, T/C [7] of 42.7%, a viability, T/C [8] of 34.2% and a viability, T/C [9] of 20.3%. For the same compound, the viability, T/C [10] was 11.8%, the viability, T/C [11] was 15.3% and the viability, T/C [12] was 4.26%. It also gave a viability, T/C [13] of 16.7%, a viability, T/C [14] of 13.1% and a viability, T/C [15] of 12.2%. It also gave a viability, T/C [16] of 8.4%, a viability, T/C [17] of 11.7% and a viability, T/C [18] of 3.59%. It also gave a viability, T/C [19] of 7.28%, a viability, T/C [20] of 8.94% and a viability, T/C [21] of 8.19%. The viability, T/C [22] was 6.87%, the viability, T/C [23] was 8.21% and the viability, T/C [24] was 2.84%. It also gave a viability, T/C [25] of 5.74%, a viability, T/C [26] of 6.34% and a viability, T/C [27] of 6.62%. For the same compound, the viability, T/C [28] was 5.33%, the viability, T/C [29] was 6.14% and the viability, T/C [30] was 2.86%. For the same compound, the viability, T/C [31] was 0.15%, the viability, T/C [32] was 0.14% and the viability, T/C [33] was 0.19%. It also gave a viability, T/C [34] of 0.18%, a viability, T/C [35] of 0.19% and a viability, T/C [36] of 0.16%.
In the case of `Cn1ncnc1[C@H]1c2n[nH]c(=O)c3cc(F)cc(c23)N[C@@H]1c1ccc(F)cc1` + Cc1cnc(CNC(=O)c2c(=O)c3ccc(N4CCCN(C)CC4)nc3n3c2sc2ccccc23)cn1, the IC50 (second compound 0.0316 µM) is reported as 19.9 nM, the IC50 (second compound 0.1 µM) is reported as under 0.999 nM and the IC50 (second compound 0.316 µM) is reported as under 0.999 nM. For the same compound, the IC50 (second compound 1 µM) was under 0.999 nM, the IC50 (second compound 3.16 µM) was under 0.999 nM and the IC50 (second compound 10 µM) was under 0.999 nM. It also gave a viability, T/C (second compound 0.0316 µM, first compound 0.000999 µM) of 110%, a viability, T/C (second compound 0.0316 µM, first compound 0.00316 µM) of 98.6% and a viability, T/C (second compound 0.0316 µM, first compound 0.00999 µM) of 85.6%. For the same compound, the viability, T/C [1] was 25.9%, the viability, T/C (second compound 0.0316 µM, first compound 0.0999 µM) was 12.9% and the viability, T/C [3] was 7.23%. It also gave a viability, T/C (second compound 0.1 µM, first compound 0.000999 µM) of 42.7%, a viability, T/C (second compound 0.1 µM, first compound 0.00316 µM) of 25.4% and a viability, T/C (second compound 0.1 µM, first compound 0.00999 µM) of 17.3%. For the same compound, the viability, T/C [7] was 12.5%, the viability, T/C (second compound 0.1 µM, first compound 0.0999 µM) was 5.67% and the viability, T/C [9] was 3.67%. The viability, T/C (second compound 0.316 µM, first compound 0.000999 µM) was 13.8%, the viability, T/C (second compound 0.316 µM, first compound 0.00316 µM) was 10% and the viability, T/C (second compound 0.316 µM, first compound 0.00999 µM) was 7.01%. It also gave a viability, T/C [13] of 6.26%, a viability, T/C (second compound 0.316 µM, first compound 0.0999 µM) of 4.34% and a viability, T/C [15] of 2.5%. For the same compound, the viability, T/C (second compound 1 µM, first compound 0.000999 µM) was 5.61%, the viability, T/C (second compound 1 µM, first compound 0.00316 µM) was 5.81% and the viability, T/C (second compound 1 µM, first compound 0.00999 µM) was 4.63%. For the same compound, the viability, T/C [19] was 3.57%, the viability, T/C (second compound 1 µM, first compound 0.0999 µM) was 2.89% and the viability, T/C [21] was 1.85%. It also gave a viability, T/C (second compound 3.16 µM, first compound 0.000999 µM) of 4.32%, a viability, T/C (second compound 3.16 µM, first compound 0.00316 µM) of 4.8% and a viability, T/C (second compound 3.16 µM, first compound 0.00999 µM) of 3.43%. For the same compound, the viability, T/C [25] was 2.17%, the viability, T/C (second compound 3.16 µM, first compound 0.0999 µM) was 0.89% and the viability, T/C [27] was 0.51%. For the same compound, the viability, T/C (second compound 10 µM, first compound 0.000999 µM) was 0.1%, the viability, T/C (second compound 10 µM, first compound 0.00316 µM) was 0.15% and the viability, T/C (second compound 10 µM, first compound 0.00999 µM) was 0.12%. For the same compound, the viability, T/C [31] was 0.13%, the viability, T/C (second compound 10 µM, first compound 0.0999 µM) was 0.66% and the viability, T/C [33] was 0.13%.
Compound `O=C(c1cc(Cc2n[nH]c(=O)c3ccccc23)ccc1F)N1CCN(C(=O)C2CC2)CC1` + Cc1cnc(CNC(=O)c2c(=O)c3ccc(N4CCCN(C)CC4)nc3n3c2sc2ccccc23)cn1 has an IC50 (second compound 0.0316 µM) of 1380 nM, an IC50 (second compound 0.1 µM) of under 31.6 nM and an IC50 (second compound 0.316 µM) of under 31.6 nM. It also gave an IC50 (second compound 1 µM) of under 31.6 nM, an IC50 (second compound 3.16 µM) of under 31.6 nM and an IC50 (second compound 10 µM) of under 31.6 nM. The viability, T/C [1] was 113%, the viability, T/C [2] was 106% and the viability, T/C [3] was 98.9%. The viability, T/C [4] was 58.9%, the viability, T/C [5] was 23.3% and the viability, T/C [6] was 4.08%. For the same compound, the viability, T/C [7] was 33.8%, the viability, T/C [8] was 26% and the viability, T/C [9] was 22%. The viability, T/C [10] was 17.1%, the viability, T/C [11] was 8.17% and the viability, T/C [12] was 4.33%. It also gave a viability, T/C [13] of 13.5%, a viability, T/C [14] of 11% and a viability, T/C [15] of 9.09%. The viability, T/C [16] was 7.84%, the viability, T/C [17] was 3.87% and the viability, T/C [18] was 2.13%. For the same compound, the viability, T/C [19] was 5.15%, the viability, T/C [20] was 5.03% and the viability, T/C [21] was 4.87%. For the same compound, the viability, T/C [22] was 4.62%, the viability, T/C [23] was 3% and the viability, T/C [24] was 1.77%. It also gave a viability, T/C [25] of 3.25%, a viability, T/C [26] of 5.08% and a viability, T/C [27] of 3.5%. It also gave a viability, T/C [28] of 2.42%, a viability, T/C [29] of 0.47% and a viability, T/C [30] of 0.13%. It also gave a viability, T/C [31] of 0.11%, a viability, T/C [32] of 0.34% and a viability, T/C [33] of 0.18%. It also gave a viability, T/C [34] of 0.14%, a viability, T/C [35] of 0.16% and a viability, T/C [36] of 0.58%.

— PubChem BioAssay AID2060488 (Molecular Pharmacology Branch, DTP, NCI, 2025)
